Counter-ions that a name gives are not always drawn. Like-named read-outs stand apart in the source and are kept apart here.
Assays:
[1] = MDR1 LLC-PK1 and BCRP MDCKII permeability assay: permeability coefficient (Papp); assay type: in vitro ADME
Source text: (§1) Final organic concentration in the assay was 1%.

BCRP = BCRP (Homo sapiens (Human), UniProt Q9UNQ0); assay: BCRP MDCKII permeability assay: efflux ratio; assay type: in vitro ADME; details: dog
H1755 cells = assay: Cellular phospho-ERK inhibition assay in H1755 cells; assay type: cell-based; details: Homo sapiens, NCI-H1755, 2 hours treatment, read-out: H1755 Cell IC50
Outline: (§2)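 A375 (DMEM) or H1755 (RPMI) cells in 10% FBS treated 2 h at 37 °C with 9-point series, 66 pM–10 μM, 0.25% DMSO. Phospho-ERK1/2 (Thr202/Tyr204) measured by In Cell Western, normalised to GAPDH and to DMSO and 10 μM binimetinib controls; IC50 by 4-parameter fit.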

A375 cells = assay: Cellular phospho-ERK inhibition assay in A375 cells; assay type: cell-based; details: Homo sapiens, A-375, A375 cells (head prints A357), 2 hours treatment, read-out: A357 cell IC50
Outline: as §2

[2] = biological target: full-length FLAG-tagged B-Raf(V600E) (Homo sapiens (Human), UniProt P15056, V600E); assay: BRAF V600E enzyme assay (TR-FRET competitive displacement); assay type: binding
Outline: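 Displacement of 50 nM Tracer 1710 from 5 nM full-length N-terminally FLAG-tagged B-Raf(V600E), detected by TR-FRET with 0.5 nM Eu anti-FLAG antibody, in 25 mM HEPES pH 7.4, 10 mM MgCl2, 2% DMSO; 60 min at ~22 °C. Compounds 11-point, 3-fold from 10 μM; IC50 from 4-parameter fit at 50 POC.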

P-gp (MDR1) = P-gp (MDR1) (Homo sapiens (Human), UniProt P08183); assay: MDR1 LLC-PK1 permeability assay: efflux ratio; assay type: in vitro ADME; details: pig
Source text: as §1

[3] = averaged IC50, TR-FRET tracer displacement, 60 min

full-length FLAG-tagged B-Raf(V600E), sequence (P15056 whole entry V600E): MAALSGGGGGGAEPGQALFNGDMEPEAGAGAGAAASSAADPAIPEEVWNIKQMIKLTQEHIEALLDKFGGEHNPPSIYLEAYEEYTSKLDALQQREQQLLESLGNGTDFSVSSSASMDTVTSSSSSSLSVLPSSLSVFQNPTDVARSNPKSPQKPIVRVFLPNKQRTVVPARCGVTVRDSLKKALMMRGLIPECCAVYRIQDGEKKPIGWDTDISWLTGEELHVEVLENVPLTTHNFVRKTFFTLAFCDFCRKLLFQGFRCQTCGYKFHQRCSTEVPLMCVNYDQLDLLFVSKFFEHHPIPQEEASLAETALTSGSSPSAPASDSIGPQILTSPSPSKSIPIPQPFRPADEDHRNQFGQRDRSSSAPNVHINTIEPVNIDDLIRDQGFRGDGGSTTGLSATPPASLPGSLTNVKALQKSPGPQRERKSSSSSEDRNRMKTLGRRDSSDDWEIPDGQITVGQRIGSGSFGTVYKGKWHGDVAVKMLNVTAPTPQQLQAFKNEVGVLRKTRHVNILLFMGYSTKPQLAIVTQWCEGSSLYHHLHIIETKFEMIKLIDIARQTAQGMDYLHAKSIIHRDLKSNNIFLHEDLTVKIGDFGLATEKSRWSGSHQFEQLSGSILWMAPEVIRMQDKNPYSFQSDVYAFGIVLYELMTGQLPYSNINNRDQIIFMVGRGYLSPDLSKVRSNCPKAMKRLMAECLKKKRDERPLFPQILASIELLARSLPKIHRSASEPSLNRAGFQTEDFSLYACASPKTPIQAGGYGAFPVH
P-gp (MDR1), sequence (P08183 whole entry, species assumed): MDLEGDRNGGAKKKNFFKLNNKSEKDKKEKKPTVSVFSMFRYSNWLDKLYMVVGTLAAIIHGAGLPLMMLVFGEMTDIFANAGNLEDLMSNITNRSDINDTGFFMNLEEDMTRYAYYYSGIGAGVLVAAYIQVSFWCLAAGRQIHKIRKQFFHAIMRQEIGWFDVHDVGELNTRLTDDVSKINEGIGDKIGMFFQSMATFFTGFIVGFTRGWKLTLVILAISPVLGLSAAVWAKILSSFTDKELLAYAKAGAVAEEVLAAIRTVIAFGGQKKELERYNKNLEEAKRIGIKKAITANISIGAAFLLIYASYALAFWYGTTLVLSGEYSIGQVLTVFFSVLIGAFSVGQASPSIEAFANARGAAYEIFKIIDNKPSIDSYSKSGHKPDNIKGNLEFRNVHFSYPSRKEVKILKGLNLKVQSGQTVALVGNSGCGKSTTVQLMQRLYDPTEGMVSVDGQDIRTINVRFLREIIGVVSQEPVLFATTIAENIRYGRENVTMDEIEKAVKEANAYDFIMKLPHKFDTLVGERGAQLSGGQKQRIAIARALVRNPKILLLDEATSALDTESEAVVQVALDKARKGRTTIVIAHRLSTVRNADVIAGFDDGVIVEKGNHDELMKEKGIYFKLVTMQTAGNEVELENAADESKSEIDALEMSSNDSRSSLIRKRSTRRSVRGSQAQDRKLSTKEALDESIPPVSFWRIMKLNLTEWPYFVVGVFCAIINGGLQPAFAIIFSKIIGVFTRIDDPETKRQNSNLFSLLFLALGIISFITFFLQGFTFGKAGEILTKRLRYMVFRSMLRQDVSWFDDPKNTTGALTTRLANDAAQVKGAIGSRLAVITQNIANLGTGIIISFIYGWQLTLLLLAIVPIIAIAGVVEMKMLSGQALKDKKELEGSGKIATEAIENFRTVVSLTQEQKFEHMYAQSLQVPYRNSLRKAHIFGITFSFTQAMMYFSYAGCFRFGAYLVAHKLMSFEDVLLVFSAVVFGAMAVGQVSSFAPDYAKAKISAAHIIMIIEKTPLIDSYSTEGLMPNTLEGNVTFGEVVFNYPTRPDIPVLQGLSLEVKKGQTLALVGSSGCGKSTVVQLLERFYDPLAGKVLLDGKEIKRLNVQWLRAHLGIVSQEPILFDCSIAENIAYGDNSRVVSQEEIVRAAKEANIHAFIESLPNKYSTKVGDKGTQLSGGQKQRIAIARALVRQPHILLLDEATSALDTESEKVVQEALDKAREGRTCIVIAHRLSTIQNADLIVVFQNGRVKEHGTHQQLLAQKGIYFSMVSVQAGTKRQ
BCRP, sequence (Q9UNQ0 whole entry): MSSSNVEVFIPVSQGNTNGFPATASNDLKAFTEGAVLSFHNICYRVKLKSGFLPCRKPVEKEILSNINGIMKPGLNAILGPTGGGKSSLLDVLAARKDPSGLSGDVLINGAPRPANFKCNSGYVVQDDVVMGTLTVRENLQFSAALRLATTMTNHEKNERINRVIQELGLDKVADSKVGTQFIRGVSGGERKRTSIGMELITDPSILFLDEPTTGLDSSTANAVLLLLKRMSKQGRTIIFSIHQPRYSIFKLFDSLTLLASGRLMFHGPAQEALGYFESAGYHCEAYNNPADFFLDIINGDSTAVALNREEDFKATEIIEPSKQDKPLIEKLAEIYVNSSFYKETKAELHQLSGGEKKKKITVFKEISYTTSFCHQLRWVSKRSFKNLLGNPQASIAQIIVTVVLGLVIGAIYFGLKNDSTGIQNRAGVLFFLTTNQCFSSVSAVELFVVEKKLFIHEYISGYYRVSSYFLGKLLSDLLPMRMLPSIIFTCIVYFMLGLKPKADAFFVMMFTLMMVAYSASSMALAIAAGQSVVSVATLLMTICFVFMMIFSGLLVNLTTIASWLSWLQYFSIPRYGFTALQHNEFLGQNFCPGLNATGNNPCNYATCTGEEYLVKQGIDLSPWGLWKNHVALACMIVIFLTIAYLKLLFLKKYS

| Structure (SMILES) | Papp at 2 h, 1 µM [1] [×10⁻⁶ cm/s] | efflux ratio at 2 h, 1 µM (BCRP) | IC50 (H1755 cells) [nM] | IC50 (A375 cells) [nM] | IC50 [2, 3] [nM] | efflux ratio at 2 h, 1 µM (P-gp (MDR1)) | IC50 [2] [nM] |
| --- | --- | --- | --- | --- | --- | --- | --- |
| Cc1c(Nc2c(F)c(F)cc(NS(=O)(=O)N3C[C@@H](F)[C@@H](F)C3)c2Cl)ccc2ncn(C)c(=O)c12 [Example 95, cis-N-(2-chloro-3-((3,5-dimethyl-4-oxo-3,4-dihydroquinazolin-6-yl)amino)-4,5-difluorophenyl)-3,4-difluoropyrrolidine-1-sulfonamide] | 25 | 6.8 | 796 | 111 | 2 | 2.7 |  |
| CN(C)S(=O)(=O)Nc1ccc(F)c(Nc2ccc3ncn(C)c(=O)c3c2F)c1Cl [Example 83, N-(2-chloro-4-fluoro-3-((5-fluoro-3-methyl-4-oxo-3,4-dihydroquinazolin-6-yl)amino)phenyl)-(N.N-dimethyl)-sulfamide] | 32 | 1.9 | 155 | 31 | 67 | 2.2 |  |
| CN(C)S(=O)(=O)Nc1ccc(F)c(Nc2ccc3ncn(C)c(=O)c3c2Cl)c1Cl [Example 3, N-(2-chloro-3-((5-chloro-3-methyl-4-oxo-3,4-dihydroquinazolin-6-yl)amino)-4-fluorophenyl)-(N,N-dimethyl)-sulfamide] | 33 | 1.5 | 61 | 16 | 30 | 1.3 |  |
| Cc1c(Nc2c(F)ccc(NS(=O)(=O)N3C[C@@H](F)[C@@H](F)C3)c2Cl)ccc2ncn(C)c(=O)c12 [Example 90, (cis)-N-(2-chloro-3-((3,5-dimethyl-4-oxo-3,4-dihydroquinazolin-6-yl)amino)-4-fluorophenyl)-3,4-difluoropyrrolidine-1-sulfonamide] | 31 | 3.5 | 127 | 49 | 9 | 2.3 |  |
| CCN(C)S(=O)(=O)Nc1ccc(F)c(Oc2ccc3ncn(C)c(=O)c3c2Cl)c1Cl [Example 109, N-(2-chloro-3-((5-chloro-3-methyl-4-oxo-3,4-dihydroquinazolin-6-yl)oxy)-4-fluorophenyl)-(N-ethyl-N-methyl)-sulfamide] | 34 | 0.8 | 272 | 13 | 7 | 1.1 |  |
| Cn1cnc2ccc(Nc3c(F)c(F)cc(NS(=O)(=O)N4CC[C@@H](F)C4)c3F)c(Cl)c2c1=O [Example 36, (R)-N-(3-((5-chloro-3-methyl-4-oxo-3,4-dihydroquinazolin-6-yl)amino)-2,4,5-trifluorophenyl)-3-fluoropyrrolidine-1-sulfonamide trifluoroacetate] | 25 | 9.9 | 61 | 5 | 1 | 2.9 |  |
| CC[C@@H]1CCN(S(=O)(=O)Nc2ccc(F)c(Nc3ccc4ncn(C)c(=O)c4c3F)c2Cl)C1 [Example 62, (R)-N-(2-chloro-4-fluoro-3-((5-fluoro-3-methyl-4-oxo-3,4-dihydroquinazolin-6-yl)amino)phenyl)-3-ethylpyrrolidine-1-sulfonamide trifluoroacetate] | 29 | 1 | 185 | 31 | 13 | 1.6 |  |
| Cn1cnc2ccc(Oc3c(F)ccc(NS(=O)(=O)N4CC[C@@H](OC(F)F)C4)c3Cl)c(Cl)c2c1=O [Example 60, (R)-N-(2-chloro-3-((5-chloro-3-methyl-4-oxo-3,4-dihydroquinazolin-6-yl)oxy)-4-fluorophenyl)-3-(difluoromethoxy)pyrrolidine-1-sulfonamide] | 18 | 1.6 | 61 | 7 |  | 3.1 | 2 |
| Cn1cnc2ccc(Oc3c(F)ccc(NS(=O)(=O)N4CC5CC4C5)c3Cl)c(Cl)c2c1=O [Example 67, N-(2-chloro-3-((5-chloro-3-methyl-4-oxo-3,4-dihydroquinazolin-6-yl)oxy)-4-fluorophenyl)-2-azabicyclo[2.1.1]hexane-2-sulfonamide] | 24 | 1 | 76 | 8 |  | 1.4 | 2 |
| Cn1cnc2ccc(Nc3c(F)ccc(NS(=O)(=O)N4CC[C@H](F)C4)c3Cl)c(F)c2c1=O [Example 27, (S)-N-(2-chloro-4-fluoro-3-((5-fluoro-3-methyl-4-oxo-3,4-dihydroquinazolin-6-yl)amino)phenyl)-3-fluoropyrrolidine-1-sulfonamide trifluoroacetate] | 39 | 4.4 | 27 | 5 | 5 | 2.7 |  |
| Cc1c(Nc2c(F)ccc(NS(=O)(=O)N3CC(F)C3)c2Cl)ccc2ncn(C)c(=O)c12 [Example 125, N-(2-chloro-3-((3,5-dimethyl-4-oxo-3,4-dihydroquinazolin-6-yl)amino)-4-fluorophenyl)-3-fluoroazetidine-1-sulfonamide] | 37 | 1.6 | 1010 | 18 | 5 | 1.2 |  |
| Cn1cnc2ccc(Nc3c(F)ccc(NS(=O)(=O)N4CC[C@@H](OC(F)F)C4)c3Cl)c(F)c2c1=O [Example 26, (R)-N-(2-chloro-4-fluoro-3-((5-fluoro-3-methyl-4-oxo-3,4-dihydroquinazolin-6-yl)amino)phenyl)-3-(difluoromethoxy)pyrrolidine-1-sulfonamide] | 31 | 3.7 | 15 | 4 | 6 | 3.3 |  |
| Cn1cnc2ccc(Oc3c(F)ccc(NS(=O)(=O)N4CCCC4)c3Cl)c(Cl)c2c1=O [Example 39, N-(2-chloro-3-((5-chloro-3-methyl-4-oxo-3,4-dihydroquinazolin-6-yl)oxy)-4-fluorophenyl)pyrrolidine-1-sulfonamide] | 23 | 0.9 | 55 | 8 | 3 | 1.3 |  |
| CO[C@@H]1CCN(S(=O)(=O)Nc2cc(F)c(F)c(Nc3ccc4ncn(C)c(=O)c4c3Cl)c2F)C1 [Example 34, (R)-N-(3-((5-chloro-3-methyl-4-oxo-3,4-dihydroquinazolin-6-yl)amino)-2,4,5-trifluorophenyl)-3-methoxypyrrolidine-1-sulfonamide] | 30 | 2.6 | 54 | 4 | 4 | 2.9 |  |
| Cc1c(Nc2c(F)ccc(NS(=O)(=O)N3CC4CC3C4)c2Cl)ccc2ncn(C)c(=O)c12 [Example 87, N-(2-chloro-3-((3,5-dimethyl-4-oxo-3,4-dihydroquinazolin-6-yl)amino)-4-fluorophenyl)-2-azabicyclo[2.1.1]hexane-2-sulfonamide trifluoroacetate] | 21 | 0.6 | 215 | 73 | 33 | 1 |  |
| Cc1c(Nc2c(F)ccc(NS(=O)(=O)N3CC4CC4C3)c2Cl)ccc2ncn(C)c(=O)c12 (stereo not drawn) [Example 92, N-(2-chloro-3-((3,5-dimethyl-4-oxo-3,4-dihydroquinazolin-6-yl)amino)-4-fluorophenyl)-3-azabicyclo[3.1.0]hexane-3-sulfonamide] | 22 | 1.9 | 35 | 36 | 8 | 1.2 |  |
| Cc1c(Nc2c(F)ccc(NS(=O)(=O)N(C)C)c2Cl)ccc2ncn(C)c(=O)c12 [Example 71, N-(2-chloro-3-((3,5-dimethyl-4-oxo-3,4-dihydroquinazolin-6-yl)amino)-4-fluorophenyl)-(N,N-dimethyl)-sulfamide] | 40 | 0.9 | 161 | 69 | 301 | 1.2 |  |
| CO[C@H]1CN(S(=O)(=O)Nc2ccc(F)c(Nc3ccc4ncn(C)c(=O)c4c3Br)c2Cl)C[C@H]1F (relative stereo) [Example 16, cis-N-(3-((5-bromo-3-methyl-4-oxo-3,4-dihydroquinazolin-6-yl)amino)-2-chloro-4-fluorophenyl)-3-fluoro-4-methoxypyrrolidine-1-sulfonamide trifluoroacetate] | 29 | 4.5 | 43 | 7 | 6 | 5.9 |  |
| CCN(C)S(=O)(=O)Nc1ccc(F)c(Oc2ccc3ncn(C)c(=O)c3c2C)c1Cl [Example 68, 6-(2-Chloro-3-{[ethyl(methyl)sulfamoyl]amino}-6-fluorophenoxy)-3,5-dimethyl-3,4 dihydroquinazolin-4-one] | 25 | 1 | 286 | 64 |  | 0.7 | 21 |

Source: patent US12303509B2, “Compounds for the treatment of BRAF-associated diseases and disorders” (Pfizer Inc., priority 2020, dated 2025)
